Experimental data: patent publication US6900344B2, “Method of preparing alkylated salicylamides via a dicarboxylate intermediate” (Emisphere Technologies, Inc., priority 2000, dated 2005)

Assay: solubility in DMAC
Settings: in DMAC (dimethylacetamide)

- solubility: about 30%
Compound: O=c1[nH]c(=O)c2ccccc2o1 [carsalam, 2H-1,3-benzoxazine-2,4(3H)-dione]
